Reference: patent publication US10722463B2, “Compositions and methods using same for delivering agents into a target organ protected by a blood barrier” (Zuli Holdings Ltd., priority 2005, dated 2020)

System: blood barrier of rabbit brain
Assay: Detection of liposomes in the brain and spinal cord by confocal microscopy after intravenous injection (Example 1)
Format: in vivo, New Zealand White male rabbits
Settings: rabbits, 1.5 ml/kg intravenous, one and four hours following administration
Procedure: A particular liposome formulation was tested for crossing the blood barrier of rabbit brain.
The rabbits were perfused with 200-250 ml PBS prior to spinal cord excision (post the border of the medulla oblongata (between C1 to C2)) and brain removal as shown in FIG. 1 (frontal neocortex (frontal part), corpus callosum, hippocampus and mid brain)). The brains and spinal cords were harvested and fixed (3.7% formalin/PBS) for 10 minutes (37% formalin diluted with PBS 1:10, to a final concentration of 3.7%). The fixed brains and spinal cords were embedded in OCT compound, placed into plastic molds and frozen at −70° C. 8-10 μm tissue slices were cut using a cryotome at −20° C. and fixed on slides after which they were rinsed with PBS for 5 minutes. Finally, slides were mounted using mounting solution (80% glycerol/20% PBS) and sealed with nail polish. Slides were analyzed using confocal microscopy.

How did the “detection of fluorescent marker in spinal cord and brain tissue” value turn out when `O=S(=O)(O)c1cc(O)c2ccc3c(S(=O)(=O)O)cc(S(=O)(=O)O)c4ccc1c2c34` [1-Hydroxypyren-3,6,8-Trisulfonic acid] was run?
Its value is “can be detected”.

Rhodamin-DSPE was tested. Which “detection of fluorescent marker in spinal cord and brain tissue” value did it give?
Its value is “can be detected”.
